Molecular target: T1, R.intestinalis-GH32 (Roseburia intestinalis, UniProt C7G9C0)
T1 construct: gene sacC; expressed from pET28a in E. coli BL21(DE3), cell-free extract; intracellular; cluster 3, only GH32 of the strain
T1 sequence (C7G9C0 1-563): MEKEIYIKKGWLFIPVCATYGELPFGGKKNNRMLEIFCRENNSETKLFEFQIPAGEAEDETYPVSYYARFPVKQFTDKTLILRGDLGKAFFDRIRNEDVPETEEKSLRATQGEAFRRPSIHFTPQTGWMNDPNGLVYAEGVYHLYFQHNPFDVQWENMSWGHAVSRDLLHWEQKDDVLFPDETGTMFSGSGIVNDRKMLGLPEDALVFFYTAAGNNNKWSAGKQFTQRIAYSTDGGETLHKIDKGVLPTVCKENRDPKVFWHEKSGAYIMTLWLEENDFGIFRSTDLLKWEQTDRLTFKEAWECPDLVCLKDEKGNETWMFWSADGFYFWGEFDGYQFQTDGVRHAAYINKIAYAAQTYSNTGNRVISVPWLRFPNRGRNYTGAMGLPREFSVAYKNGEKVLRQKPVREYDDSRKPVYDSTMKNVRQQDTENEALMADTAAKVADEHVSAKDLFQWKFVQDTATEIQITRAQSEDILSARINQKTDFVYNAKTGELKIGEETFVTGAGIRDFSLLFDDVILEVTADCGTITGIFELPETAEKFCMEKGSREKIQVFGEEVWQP
Test: degradation by E. coli cell-free extract
Type: biochemical

Structure (SMILES) | degradation by E. coli cell-free extract
OC[C@H]1O[C@@](CO)(OC[C@@]2(O[C@H]3O[C@H](CO)[C@@H](O)[C@H](O)[C@H]3O)O[C@H](CO)[C@@H](O)[C@@H]2O)[C@@H](O)[C@@H]1O [kestose] | cell-free extracts containing R.intestinalis-GH32
OC[C@H]1O[C@@](CO)(OC[C@@]2(OC[C@@]3(O[C@H]4O[C@H](CO)[C@@H](O)[C@H](O)[C@H]4O)O[C@H](CO)[C@@H](O)[C@@H]3O)O[C@H](CO)[C@@H](O)[C@@H]2O)[C@@H](O)[C@@H]1O [nystose] | cell-free extracts containing R.intestinalis-GH32

Reference: PMC7833758, “Characterization of fructooligosaccharide metabolism and fructooligosaccharide-degrading enzymes in human commensal butyrate producers” (Gut Microbes, 2021)
